Measurements taken from patent publication US8785452B2, “Anti-infective compounds” (priority 2008, dated 2014).
Read-outs that look alike come from different tables or passages of the source.

How the values were obtained:
[1] = test system: Raw264.7 cells; assay: Cell number (CellNb) from image analysis of the phenotypic cell-based assay; conditions: for QIM Confirm CellNb 0.2 uM / QIM Confirm CellNb 2 uM / QIM Confirm CellNb 20 uM: confirmation; for Primary QIM CellNb: primary screen, 20 μM
[2] = test system: M. tuberculosis H37Rv-GFP; assay: microbe, parasite or virus in culture; type: cell-based; conditions: Mycobacterium tuberculosis; for inhibition at 0.2 µM: read-out: QUM Confirm % Inhibition 0.2 uM; for inhibition at 2 µM: read-out: QUM Confirm % Inhibition 2 uM; for inhibition at 20 µM: read-out: QUM Confirm % Inhibition 20 uM
[3] = test system: M. tuberculosis H37Rv-GFP; assay: microbe, parasite or virus in culture; type: cell-based, Mycobacterium tuberculosis; conditions: Mycobacterium tuberculosis, H37RV, Macrophage; for inhibition at 0.2 µM: read-out: QIM Confirm % Inhibition 0.2 uM; for inhibition at 2 µM: read-out: QIM Confirm % Inhibition 2 uM
[4] = test system: Raw264.7 cells; conditions: mouse, 5 days; for Primary QIM CellNb: 20 μM
[5] = confirmation, 20 uM, read-out: QIM Confirm % Inhibition 20 uM
[6] = primary screen, 20 μM, read-out: Primary QIM % Inhibition
[7] = confirmation, 20 uM, intracellular, read-out: QIM Confirm % Inhibition 20 uM
[8] = primary screen, 20 μM, intracellular, read-out: Primary QIM % Inhibition

Compound | Primary QIM CellNb [1] | inhibition at 20 µM [3, 5] [%] | inhibition at 20 µM [3, 6] [%] | Primary QIM CellNb [4] | also measured
CCOC(=O)/N=C(\NC(C)=O)c1cccc(Cl)c1 [IPK 000 033 61] | 188.3 | 62.9 | 31.6 |  | QIM Confirm CellNb 0.2 uM [1]: 210.8; QIM Confirm CellNb 2 uM [1]: 434.1; QIM Confirm CellNb 20 uM [1]: 111.8; inhibition at 0.2 µM [2]: 51.6%; inhibition at 2 µM [2]: 37.6%; inhibition at 20 µM [2]: 67.1%; inhibition at 0.2 µM ([3]; confirmation, intracellular): 16.2%; inhibition at 2 µM ([3]; confirmation, intracellular): 13.8%
C/C(=N\NOCc1cc([N+](=O)[O-])cc([N+](=O)[O-])c1)c1ccccc1 [IPK 000 035 56] | 266.0 | 89 | 83.3 |  | QIM Confirm CellNb 0.2 uM [1]: 247.1; QIM Confirm CellNb 2 uM [1]: 313.1; QIM Confirm CellNb 20 uM [1]: 524.3; inhibition at 0.2 µM [2]: 41.5%; inhibition at 2 µM [2]: 39.6%; inhibition at 20 µM [2]: 65.6%; inhibition at 0.2 µM ([3]; confirmation, intracellular): 9.1%; inhibition at 2 µM ([3]; confirmation, intracellular): 18.8%
CCc1nnc(NS(=O)(=O)c2ccc(N)cc2)s1 [IPK 000 035 58] | 104.0 | 2.8 | -51.3 |  | QIM Confirm CellNb 0.2 uM [1]: 292.3; QIM Confirm CellNb 2 uM [1]: 330.0; QIM Confirm CellNb 20 uM [1]: 279.9; inhibition at 0.2 µM [2]: 45.1%; inhibition at 2 µM [2]: 46.4%; inhibition at 20 µM [2]: 65.3%; inhibition at 0.2 µM ([3]; confirmation, intracellular): 5.1%; inhibition at 2 µM ([3]; confirmation, intracellular): 34.4%
CCCCS(=O)(=O)/C=C\C=C\S(=O)(=O)CCCC [IPK 000 036 07] | 142.3 | 59.5 | 27.7 |  | QIM Confirm CellNb 0.2 uM [1]: 267.4; QIM Confirm CellNb 2 uM [1]: 293.9; QIM Confirm CellNb 20 uM [1]: 164.4; inhibition at 0.2 µM [2]: 42.3%; inhibition at 2 µM [2]: 47.9%; inhibition at 20 µM [2]: 70.6%; inhibition at 0.2 µM ([3]; confirmation, intracellular): 17.2%; inhibition at 2 µM ([3]; confirmation, intracellular): 32%
O=[N+]([O-])c1ccc(/C=N/c2ccccc2O)cc1 [IPK 000 040 14] | 95.5 | 18.1 | -38.6 |  | QIM Confirm CellNb 0.2 uM [1]: 321.4; QIM Confirm CellNb 2 uM [1]: 262.3; QIM Confirm CellNb 20 uM [1]: 330.0; inhibition at 0.2 µM [2]: 38.7%; inhibition at 2 µM [2]: 46.8%; inhibition at 20 µM [2]: 68.4%; inhibition at 0.2 µM ([3]; confirmation, intracellular): 20.4%; inhibition at 2 µM ([3]; confirmation, intracellular): 15.6%
O=C(N/N=C/c1ccccc1O)c1ccncc1 [IPK 000 041 45] | 324.5 | 87.2 | 88.6 |  | QIM Confirm CellNb 0.2 uM [1]: 437.4; QIM Confirm CellNb 2 uM [1]: 527.9; QIM Confirm CellNb 20 uM [1]: 243.8; inhibition at 0.2 µM [2]: 38.4%; inhibition at 2 µM [2]: 47.4%; inhibition at 20 µM [2]: 100%; inhibition at 0.2 µM ([3]; confirmation, intracellular): 56.7%; inhibition at 2 µM ([3]; confirmation, intracellular): 103%
O=C(N/N=C/c1cccc2ccccc12)c1ccncc1 [IPK 000 041 46] | 320.0 | 93.3 | 81.2 |  | QIM Confirm CellNb 0.2 uM [1]: 386.9; QIM Confirm CellNb 2 uM [1]: 542.6; QIM Confirm CellNb 20 uM [1]: 347.1; inhibition at 0.2 µM [2]: 41.1%; inhibition at 2 µM [2]: 81.4%; inhibition at 20 µM [2]: 57.9%; inhibition at 0.2 µM ([3]; confirmation, intracellular): 41.8%; inhibition at 2 µM ([3]; confirmation, intracellular): 101%
O=C(N/N=C/c1cccc([N+](=O)[O-])c1)c1ccncc1 [IPK 000 041 47] | 362.8 | 95.5 | 102 |  | QIM Confirm CellNb 0.2 uM [1]: 479.8; QIM Confirm CellNb 2 uM [1]: 516.1; QIM Confirm CellNb 20 uM [1]: 345.8; inhibition at 0.2 µM [2]: 43.8%; inhibition at 2 µM [2]: 82.3%; inhibition at 20 µM [2]: 99.5%; inhibition at 0.2 µM ([3]; confirmation, intracellular): 74.5%; inhibition at 2 µM ([3]; confirmation, intracellular): 102%
O=C(N/N=C/c1ccc([N+](=O)[O-])cc1)c1ccncc1 [IPK 000 041 48] | 315.3 | 88.4 | 84.5 | 97.5 | 
CCOc1ccc(/C=N/NC(=O)c2ccncc2)cc1 [IPK 000 041 49] | 336.5 | 94.5 | 83.8 | 102.3 | 
Cc1ccc(/C=N/NC(=O)c2ccncc2)cc1 [IPK 000 041 50] | 296.3 | 90.8 | 81.6 | 102.2 | 
O=C(N/N=C/c1ccc(Br)cc1)c1ccncc1 [IPK 000 041 51] | 351.3 | 94 | 89 | 102.9 | 
O=C(N/N=C/c1ccc(F)cc1)c1ccncc1 [IPK 000 041 52] | 262.5 | 93.7 | 75.6 | 103.2 | 
O=C(N/N=C/c1ccc(Cl)cc1)c1ccncc1 [IPK 000 041 53] | 426.8 | 97 | 100 | 98.1 | 
Cc1cccn2c(=O)c(C=O)c(Nc3cccc(Cl)c3)nc12 [IPK 000 042 07] | 198.0 | 107 | 34.7 | 104.0 | 
O=C(Nc1sc2c(c1C(=O)Nc1ccccc1)CCC2)c1cccs1 [IPK 000 042 30] | 193.8 | 95.9 | 73.7 | 75.2 | 
N#Cc1cc(Br)c([N+](=O)[O-])cc1C#N [IPK 000 042 72] | 152.0 | 57.6 | 11.9 | −1.9 | QIM Confirm CellNb 2 uM [1]: 96.1; QIM Confirm CellNb 2 uM ([4]; 2 uM): 82.5
CC(=O)Oc1ccccc1C(=S)Nc1ccccc1 [IPK 000 042 77] | 367.0 | 48.9 | 105 | 7.7 | 

Compound | Primary QIM CellNb [1] | inhibition at 20 µM [3, 5] [%] | inhibition at 20 µM [3, 6] [%] | Primary QIM CellNb [4] | also measured
Oc1c(Cl)cc(Cl)cc1C(=S)Nc1ccccc1 [IPK 000 042 78] | 194.5 | 91.7 | 73.9 | 33.0 | 
COc1ccc(OC)c(/C=N/NC(=O)c2ccncc2)c1 [IPK 000 042 93] | 321.8 | 106 | 109 | 105.1 | 
COc1ccc(/C=N/NC(=O)c2ccncc2)cc1OC [IPK 000 042 95] | 143.5 | 98.8 | 64.7 | 106.0 | 
CN(C)c1ccc(/C=N/NC(=O)c2ccncc2)cc1 [IPK 000 042 96] | 216.3 | 105 | 84.3 | 101.1 | 
COc1cc(/C=N/NC(=O)c2ccncc2)ccc1O [IPK 000 042 97] | 307.8 | 103 | 99.7 | 99.2 | 
O=C(N/N=C/c1cc([N+](=O)[O-])ccc1O)c1ccncc1 [IPK 000 042 98] | 350.0 | 105 | 102 | 95.3 | 
CCOc1cc(/C=N/NC(=O)c2ccncc2)ccc1O [IPK 000 042 99] | 364.0 | 106 | 103 | 104.1 | 
COc1ccc(/C=N/NC(=O)c2ccncc2)c(OC)c1 [IPK 000 043 00] | 333.3 | 102 | 104 | 101.4 | 
COc1ccccc1/C=N/NC(=O)c1ccncc1 [IPK 000 043 01] | 287.8 | 103 | 86.6 | 103.6 | 
COc1cccc(/C=N/NC(=O)c2ccncc2)c1OC [IPK 000 043 02] | 229.5 | 99.8 | 81.1 | 98.7 | 
O=C(N/N=C/c1ccccc1Cl)c1ccncc1 [IPK 000 043 05] | 228.8 | 104 | 97.1 | 101.6 | QIM Confirm CellNb 20 uM [4]: 80.2
CCCCOc1ccc(/C=N/NC(=O)c2ccncc2)cc1 [IPK 000 043 06] | 200.3 | 98 | 81.4 | 98.1 | 
O=C(N/N=C/c1ccc(O)cc1)c1ccncc1 [IPK 000 043 07] | 303.5 | 98.6 | 104 | 102.5 | 
CSc1nsc(SCc2ccc(C(=O)Nc3ccc(C)cc3C)cc2)n1 [IPK 000 125 08] |  |  |  |  | inhibition at 20 µM [3, 7]: 65.1%; inhibition at 20 µM [3, 8]: 72.8%; QIM Confirm CellNb 0.2 uM [4]: 388.9
O=C(Nc1ccccc1)Nc1ccc(Br)c(Cl)c1 [IPK 000 170 27] |  |  |  |  | inhibition at 20 µM [3, 7]: 18.9%; inhibition at 20 µM [3, 8]: -72.4%; QIM Confirm CellNb 20 uM [4]: 46.9
Cc1cc(C)cc(NC(=O)c2cccs2)c1 [IPK 000 192 45] |  |  |  |  | inhibition at 20 µM [3, 7]: 65.4%; inhibition at 20 µM [3, 8]: 88.8%; QIM Confirm CellNb 0.2 uM [4]: 334.0
CN(C)c1ccc(/C=C2/c3ccccc3-c3ccc(C(=O)CCCCN4CCCCC4)cc32)cc1 [IPK 000 198 53] |  |  |  | 10.2 | inhibition at 20 µM [3, 7]: 41.9%; inhibition at 20 µM [3, 8]: 58.5%
